Where two headings read alike, the source gives them in different places.

Data on 24 molecules can be found in patent US20020026053A1, “Novel 3-(substituted) -2- indolinones compounds and use thereof as inhibitors of protein kinase activity” (priority 1997, published 2002).

One experiment has as its system PDGF-R. Kind of experiment: PDGF-R Assay (cellular ELISA, U1242 cells). The class given is cell-based. More on the design: concentration or dose not given beside the values. In short, it runs like this: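 Cellular ELISA for receptor autophosphorylation: after 2 hr test-compound treatment of serum-free U1242 cells at 37°C, ligand is added for 5–10 min, cells are lysed (HNTG) and receptor captured by specific antibody. Anti-phosphotyrosine plus secondary antibody with ABTS colour read at 410/630 nm, compared with compound-free control cells.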
Background: ELISA stands for enzyme-linked immunosorbent assay.

The target in another experiment is T1, EGFR (Homo sapiens, UniProt P00533).
T1 construct: endogenous in cells; host or cells: A431 cells (lysate, captured with SUMO1 anti-EGFR antibody)
T1 sequence (P00533 25-1210): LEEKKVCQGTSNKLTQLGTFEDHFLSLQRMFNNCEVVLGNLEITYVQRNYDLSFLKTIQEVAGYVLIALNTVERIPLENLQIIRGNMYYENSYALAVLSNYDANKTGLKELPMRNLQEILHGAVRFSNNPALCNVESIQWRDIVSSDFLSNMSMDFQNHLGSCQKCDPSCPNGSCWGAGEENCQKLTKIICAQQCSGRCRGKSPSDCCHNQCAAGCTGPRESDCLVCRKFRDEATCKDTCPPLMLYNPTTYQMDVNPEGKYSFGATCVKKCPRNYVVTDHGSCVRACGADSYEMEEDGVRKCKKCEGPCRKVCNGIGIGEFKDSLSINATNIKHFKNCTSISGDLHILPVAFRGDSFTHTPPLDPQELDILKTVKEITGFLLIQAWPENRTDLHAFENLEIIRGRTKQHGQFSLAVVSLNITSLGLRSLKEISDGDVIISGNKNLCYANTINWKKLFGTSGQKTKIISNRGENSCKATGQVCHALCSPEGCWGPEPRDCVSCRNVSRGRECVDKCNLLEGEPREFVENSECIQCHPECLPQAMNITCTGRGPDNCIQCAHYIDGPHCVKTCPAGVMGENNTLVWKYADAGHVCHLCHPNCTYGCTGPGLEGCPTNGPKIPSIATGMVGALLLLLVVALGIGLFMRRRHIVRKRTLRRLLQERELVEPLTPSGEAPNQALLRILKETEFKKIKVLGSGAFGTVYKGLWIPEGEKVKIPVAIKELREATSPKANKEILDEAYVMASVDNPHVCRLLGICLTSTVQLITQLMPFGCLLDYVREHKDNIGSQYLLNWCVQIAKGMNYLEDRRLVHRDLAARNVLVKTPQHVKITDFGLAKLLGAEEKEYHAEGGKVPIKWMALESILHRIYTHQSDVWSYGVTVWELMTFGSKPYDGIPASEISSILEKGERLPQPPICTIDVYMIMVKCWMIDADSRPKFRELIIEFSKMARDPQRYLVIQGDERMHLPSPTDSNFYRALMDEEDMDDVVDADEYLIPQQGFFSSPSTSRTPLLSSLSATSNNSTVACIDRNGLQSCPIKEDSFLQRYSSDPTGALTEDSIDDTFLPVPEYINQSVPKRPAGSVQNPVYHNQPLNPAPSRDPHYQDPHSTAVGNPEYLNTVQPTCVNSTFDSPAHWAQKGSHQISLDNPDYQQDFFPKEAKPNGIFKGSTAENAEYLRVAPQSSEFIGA
Put plainly: Biochemical EGFR Assay. Set-up: concentration or dose not given beside the values. In short, it runs like this:
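Readout is ABTS absorbance at 410 nm after anti-phosphotyrosine and HRP-antibody detection of EGFR autophosphorylation. The kinase was immunocaptured from A431 lysate, exposed 30 min to test compound diluted 1:10 in TBS, then phosphorylated for 5 min with ATP/MnCl2 before an EDTA stop.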

In the case of `COc1cc(C)cc(O)c1C=C1C(=O)Nc2c(Br)cc(Br)c(C)c21` [10725/H06], the “PDGF Kinase % Inhibition (P.119)” value with PDGF-R is on record as 6.9%. Besides, the “Biochem EGFR % Inhibition (P.167)” value at EGFR is given as 0.3%.
The matching figures for `Cc1c(Br)cc(Br)c2c1C(=Cc1ccc(N3CCN(C=O)CC3)cc1)C(=O)N2` [10725/H07]: 2.6% and −13.3%.
As for `Cc1c(Br)cc(Br)c2c1C(=Cc1ccc(N3CCOCC3)cc1)C(=O)N2` [10725/H08], in the experiment with PDGF-R, the “PDGF Kinase % Inhibition (P.119)” value is given as 13.6%. The “Biochem EGFR % Inhibition (P.167)” value at EGFR is listed as −3.7%.
The like results for `COC(=O)Cc1c(Cl)[nH]c(C=C2C(=O)Nc3c(Br)cc(Br)c(C)c32)c1C(=O)OC` [10725/H09] were, in that order, 9.3% and −28.4%.
The like results for `Cc1c(Br)cc(Br)c2c1C(=Cc1c(Br)cnn1-c1ccc(Cl)cc1)C(=O)N2` [10725/H10] were, in that order, 12.2% and 9.1%.
Turning to `Cc1c(Br)cc(Br)c2c1C(=Cc1c[nH]cn1)C(=O)N2` [10725/H11], the “PDGF Kinase % Inhibition (P.119)” value with PDGF-R worked out at 16.5%. In addition, the “Biochem EGFR % Inhibition (P.167)” value on EGFR was found to be 0.5%.
The like results for `Cc1c(Br)cc(Br)c2c1C(=Cc1ccccc1[N+](=O)[O-])C(=O)N2` [10726/H02] were, in that order, −8.3% and −11.2%.
The like results for `CCOC(=O)c1[nH]c(C=C2C(=O)Nc3c(Br)cc(Br)c(C)c32)c(C(=O)OC)c1C` [10726/H03] were, in that order, −17.8% and 14.0%.
The matching figures for `Cc1cc(C=C2C(=O)Nc3c(Br)cc(Br)c(C)c32)cc(C(C)(C)C)c1O` [10726/H04]: 13.2% and 75.5%.
For the molecule `COc1cccc(C=C2C(=O)Nc3ccc(S(=O)(=O)N4CCOCC4)cc32)c1` [10736/F10], in the experiment on PDGF-R, the “PDGF Kinase % Inhibition (P.119)” value was determined as 11.0%. Further, the “Biochem EGFR % Inhibition (P.167)” value at EGFR is given as −0.7%.
For the molecule `O=C1Nc2ccc(S(=O)(=O)N3CCOCC3)cc2C1=Cc1ccccc1Cl` [10736/F11], in the experiment with PDGF-R, the “PDGF Kinase % Inhibition (P.119)” value is recorded as 4.4%. The “Biochem EGFR % Inhibition (P.167)” value on EGFR was −23.4%.
Regarding `O=C1Nc2ccc(CCCl)cc2C1=Cc1ccc(Cl)cc1` [10736/G02], the “PDGF Kinase % Inhibition (P.119)” value in the experiment with PDGF-R is listed as −5.2%. Besides, the “Biochem EGFR % Inhibition (P.167)” value at EGFR is −4.5%.
The matching figures for `O=C1Nc2ccc(CCCl)cc2C1=Cc1ccccc1C(F)(F)F` [10736/G03]: 1.4% and 23.0%.
Consider `Cc1cccc(C=C2C(=O)Nc3ccc(CCCl)cc32)c1` [10736/G04], for which, in the experiment on PDGF-R, the “PDGF Kinase % Inhibition (P.119)” value is recorded as −8.3%. On EGFR, the “Biochem EGFR % Inhibition (P.167)” value was −35.0%.
With `O=C1Nc2ccc(CCCl)cc2C1=Cc1cccc(F)c1` [10736/G07], the “PDGF Kinase % Inhibition (P.119)” value with PDGF-R (protocol P.119) is reported as −14.8%. The “Biochem EGFR % Inhibition (P.167)” value on EGFR (protocol P.167) was −74.8%.
Regarding `O=C1Nc2ccc(CCCl)cc2C1=Cc1ccccc1F` [10736/G08], the “PDGF Kinase % Inhibition (P.119)” value in the experiment on PDGF-R (protocol P.119) is listed as −9.2%. Also, the “Biochem EGFR % Inhibition (P.167)” value on EGFR (protocol P.167) is on record as −9.2%.
For the molecule `CCc1ccc(C=C2C(=O)Nc3ccc(CCCl)cc32)cc1` [10736/G09], the “PDGF Kinase % Inhibition (P.119)” value in the experiment on PDGF-R (protocol P.119) is listed as −3.5%. In addition, the “Biochem EGFR % Inhibition (P.167)” value at EGFR (protocol P.167) is 12.4%.
The matching figures for `COc1cccc(C=C2C(=O)Nc3ccc(CCCl)cc32)c1` [10736/G10]: −7.4% and −4.5%.
The matching figures for `O=C1Nc2ccc(CCCl)cc2C1=Cc1ccccc1Cl` [10736/G11]: −1.7% and −6.4%.
The matching figures for `Cc1c(Br)cc(Br)c2c1C(=Cc1ccc(Cl)cc1)C(=O)N2` [10736/H02]: −6.1% and −32.0%.
With `Cc1c(Br)cc(Br)c2c1C(=Cc1ccccc1C(F)(F)F)C(=O)N2` [10736/H03], the “PDGF Kinase % Inhibition (P.119)” value in the experiment on PDGF-R (protocol P.119) worked out at 2.2%. The “Biochem EGFR % Inhibition (P.167)” value on EGFR (protocol P.167) is on record as −1.4%.
The matching figures for `Cc1cccc(C=C2C(=O)Nc3c(Br)cc(Br)c(C)c32)c1` [10736/H04]: −10.9% and −4.3%.
As for `Cc1ccc(C=C2C(=O)Nc3c(Br)cc(Br)c(C)c32)cc1` [10736/H05], the “PDGF Kinase % Inhibition (P.119)” value with PDGF-R (protocol P.119) is on record as −10.0%. The “Biochem EGFR % Inhibition (P.167)” value at EGFR (protocol P.167) is on record as −28.9%.
The like results for `Cc1c(Br)cc(Br)c2c1C(=Cc1cccc(Cl)c1)C(=O)N2` [10736/H06] were, in that order, 9.3% and 12.6%.
